Source: the supplement of paper PMC11208160

assay: recombinant UMI read abundance after kanamycin selection (control-corrected) (log10(CPM+1)); higher = more efficient recombination; extreme values may be limits of the assay; sequences stand for … in AGTGCAGAGAAAATCGGCCAGTTTTCTCTGCCTGCAGTCCGCATGCCGTGGGACCCCTTGGGTTCTAACCTGTTGCCTAGATTTATGCAGCGGACTGCCTTTCTCCCAAAGTGATAAACCGG…AGGTTGGTTTCACT; site = the 11-nt donor
How it was run: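 Pooled Escherichia coli screen of donor and donor-binding-loop pairs for the IS621 bridge recombinase. Each pair sits with a 12-nt UMI on a plasmid carrying a promoterless kanamycin gene. The library was co-electroporated with a target plasmid encoding a fixed target and T7-inducible recombinase, then plated with IPTG (0.07 mM) plus kanamycin, or unselected, each in two replicates. Recombinant UMIs were PCR-amplified across the donor–target junction and sequenced. Counts became CPM, averaged over replicates, scaled by control-derived factors and reported as log10(CPM+1).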
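Further: IS621 bridge recombinase in Escherichia coli cells against a fixed T5 target plasmid.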

Sequence | recombinant UMI read abundance (log10)
GACCACCCATGGACCGGTTTTCCCGGTAATCCGTATTTGTT (site GGCCACCCTAA) | 0.00672
GACCACCCATGGACCGGTTTTCCCGGTAATCCGTATTTGTT (site GTCCACCCTAA) | 0.0482
GACCCATCATGGACCGGTTTTCCCGGTAATCCGTATTTGCC (site GACCCATCTGG) | 1.64
GACCCGACATGGACCGGTTTTCCCGGTAATCCGTATTTGGT (site GACCCGACTAC) | 0.319
GACCCTACATGGACCGGTTTTCCCGGTAATCCGTATTTGAA (site GACCCTACTTT) | 0.324
GACCGACCATGGACCGGTTTTCCCGGTAATCCGTATTTGCG (site GACCGACCTCG) | 0.00858
GACCGTCCATGGACCGGTTTTCCCGGTAATCCGTATTTGAC (site GACCGTCCTGT) | 0
GACCTATCATGGACCGGTTTTCCCGGTAATCCGTATTTGGA (site GACCTATCTTC) | 0.981
GACCTTCCATGGACCGGTTTTCCCGGTAATCCGTATTTGGT (site GACCTTCCTAC) | 0.0209
GACGCCGCATGGACCGGTTTTCCCGGTAATCCGTATTTGGT (site GACGCCGCTAC) | 0.736
GACGTAACATGGACCGGTTTTCCCGGTAATCCGTATTTGGC (site GACGTAACTGC) | 1.72
GACTAGCCATGGACCGGTTTTCCCGGTAATCCGTATTTGAA (site GACTAGCCTTT) | 0.0158
GACTCATCATGGACCGGTTTTCCCGGTAATCCGTATTTGCC (site GACTCATCTGG) | 2.65
GACTTGGCATGGACCGGTTTTCCCGGTAATCCGTATTTGAA (site GACTTGGCTTT) | 0.93
GAGAAGCCATGGACCGGTTTTCCCGGTAATCCGTATTTGGG (site GAGAAGCCTCC) | 0.0155
GAGAAGCCATGGACCGGTTTTCCCGGTAATCCGTATTTGGG (site GCGAAGCCTCC) | 0.0122
GAGAAGCCATGGACCGGTTTTCCCGGTAATCCGTATTTGGG (site GGGAAGCCTCC) | 0
GAGAAGCCATGGACCGGTTTTCCCGGTAATCCGTATTTGGG (site GTGAAGCCTCC) | 0.0251
GAGAATCCATGGACCGGTTTTCCCGGTAATCCGTATTTGTT (site CGGAATCCTAA) | 0
GAGAATCCATGGACCGGTTTTCCCGGTAATCCGTATTTGTT (site GAGAATCCTAA) | 0
GAGACGTCATGGACCGGTTTTCCCGGTAATCCGTATTTGCC (site GAGACGTCTGG) | 2.04
GAGCACGCATGGACCGGTTTTCCCGGTAATCCGTATTTGGG (site AAGCACGCTCC) | 0.0191
GAGCACGCATGGACCGGTTTTCCCGGTAATCCGTATTTGGG (site CAGCACGCTCC) | 0.0292
GAGCACGCATGGACCGGTTTTCCCGGTAATCCGTATTTGGG (site GAGCACGCTCC) | 0.468
GAGCACGCATGGACCGGTTTTCCCGGTAATCCGTATTTGGG (site TAGCACGCTCC) | 0.517

Sequence | recombinant UMI read abundance (log10)
GAGCACTCATGGACCGGTTTTCCCGGTAATCCGTATTTGCG (site GAGCACTCTCG) | 3.08
GAGCCCACATGGACCGGTTTTCCCGGTAATCCGTATTTGAA (site GAGCCCACTTT) | 1.73
GAGCCCTCATGGACCGGTTTTCCCGGTAATCCGTATTTGTC (site GAGCCCTCTGA) | 3.73
GAGCCGACATGGACCGGTTTTCCCGGTAATCCGTATTTGGC (site GAGCCGACTGC) | 0
GAGCGCACATGGACCGGTTTTCCCGGTAATCCGTATTTGAT (site GAGCACACTAT) | 1.07
GAGCGCACATGGACCGGTTTTCCCGGTAATCCGTATTTGAT (site GAGCCCACTAT) | 0.285
GAGCGCACATGGACCGGTTTTCCCGGTAATCCGTATTTGAT (site GAGCGCACTAT) | 1.73
GAGCGCACATGGACCGGTTTTCCCGGTAATCCGTATTTGAT (site GAGCTCACTAT) | 0.111
GAGCGTCCATGGACCGGTTTTCCCGGTAATCCGTATTTGGG (site GAGCGTCCTCC) | 0.0151
GAGCGTTCATGGACCGGTTTTCCCGGTAATCCGTATTTGAA (site GAGCGTTCTTT) | 2.83
GAGCTCACATGGACCGGTTTTCCCGGTAATCCGTATTTGAT (site AAGCTCACTAT) | 1.48
GAGCTCACATGGACCGGTTTTCCCGGTAATCCGTATTTGAT (site CAGCTCACTAT) | 0.963
GAGCTCACATGGACCGGTTTTCCCGGTAATCCGTATTTGAT (site GAACTCACTAT) | 0.9
GAGCTCACATGGACCGGTTTTCCCGGTAATCCGTATTTGAT (site GACCTCACTAT) | 0.584
GAGCTCACATGGACCGGTTTTCCCGGTAATCCGTATTTGAT (site GAGATCACTAT) | 0.00858
GAGCTCACATGGACCGGTTTTCCCGGTAATCCGTATTTGAT (site GAGCACACTAT) | 0.159
GAGCTCACATGGACCGGTTTTCCCGGTAATCCGTATTTGAT (site GAGCCCACTAT) | 0.905
GAGCTCACATGGACCGGTTTTCCCGGTAATCCGTATTTGAT (site GAGCGCACTAT) | 0
GAGCTCACATGGACCGGTTTTCCCGGTAATCCGTATTTGAT (site GAGCTAACTAT) | 0
GAGCTCACATGGACCGGTTTTCCCGGTAATCCGTATTTGAT (site GAGCTCACTAA) | 0.00273
GAGCTCACATGGACCGGTTTTCCCGGTAATCCGTATTTGAT (site GAGCTCACTAC) | 0
GAGCTCACATGGACCGGTTTTCCCGGTAATCCGTATTTGAT (site GAGCTCACTAG) | 0.209
GAGCTCACATGGACCGGTTTTCCCGGTAATCCGTATTTGAT (site GAGCTCACTAT) | 2.18
GAGCTCACATGGACCGGTTTTCCCGGTAATCCGTATTTGAT (site GAGCTCACTCT) | 0.206
GAGCTCACATGGACCGGTTTTCCCGGTAATCCGTATTTGAT (site GAGCTCACTGT) | 0.768

Sequence | recombinant UMI read abundance (log10)
GAGCTCACATGGACCGGTTTTCCCGGTAATCCGTATTTGAT (site GAGCTCACTTT) | 0.125
GAGCTCACATGGACCGGTTTTCCCGGTAATCCGTATTTGAT (site GAGCTCCCTAT) | 0.00734
GAGCTCACATGGACCGGTTTTCCCGGTAATCCGTATTTGAT (site GAGCTCGCTAT) | 0.318
GAGCTCACATGGACCGGTTTTCCCGGTAATCCGTATTTGAT (site GAGCTCTCTAT) | 0.783
GAGCTCACATGGACCGGTTTTCCCGGTAATCCGTATTTGAT (site GAGCTGACTAT) | 0.0158
GAGCTCACATGGACCGGTTTTCCCGGTAATCCGTATTTGAT (site GAGCTTACTAT) | 0.342
GAGCTCACATGGACCGGTTTTCCCGGTAATCCGTATTTGAT (site GAGGTCACTAT) | 0.0104
GAGCTCACATGGACCGGTTTTCCCGGTAATCCGTATTTGAT (site GAGTTCACTAT) | 0.209
GAGCTCACATGGACCGGTTTTCCCGGTAATCCGTATTTGAT (site GATCTCACTAT) | 0.0468
GAGCTCACATGGACCGGTTTTCCCGGTAATCCGTATTTGAT (site GCGCTCACTAT) | 0.011
GAGCTCACATGGACCGGTTTTCCCGGTAATCCGTATTTGAT (site GGGCTCACTAT) | 0.394
GAGCTCACATGGACCGGTTTTCCCGGTAATCCGTATTTGAT (site GTGCTCACTAT) | 0.296
GAGCTCACATGGACCGGTTTTCCCGGTAATCCGTATTTGAT (site TAGCTCACTAT) | 1.66
GAGCTCTCATGGACCGGTTTTCCCGGTAATCCGTATTTGAC (site GAGCTCTCTGT) | 3.55
GAGCTTACATGGACCGGTTTTCCCGGTAATCCGTATTTGAT (site GAGCTAACTAT) | 0.136
GAGCTTACATGGACCGGTTTTCCCGGTAATCCGTATTTGAT (site GAGCTCACTAT) | 0.0125
GAGCTTACATGGACCGGTTTTCCCGGTAATCCGTATTTGAT (site GAGCTGACTAT) | 0.0138
GAGCTTACATGGACCGGTTTTCCCGGTAATCCGTATTTGAT (site GAGCTTACTAT) | 1.77
GAGGAGGCATGGACCGGTTTTCCCGGTAATCCGTATTTGTG (site GAGGAGGCTCA) | 0.576
GAGGAGGCATGGACCGGTTTTCCCGGTAATCCGTATTTGTG (site GCGGAGGCTCA) | 0.367
GAGGAGGCATGGACCGGTTTTCCCGGTAATCCGTATTTGTG (site GGGGAGGCTCA) | 0.0134
GAGGAGGCATGGACCGGTTTTCCCGGTAATCCGTATTTGTG (site GTGGAGGCTCA) | 0.26
GAGGCAACATGGACCGGTTTTCCCGGTAATCCGTATTTGCT (site GAGGCAACTAG) | 1.66
GAGGGTTCATGGACCGGTTTTCCCGGTAATCCGTATTTGCG (site GAGGGTTCTCG) | 2.63
GAGGTTCCATGGACCGGTTTTCCCGGTAATCCGTATTTGGC (site GAGGTTCCTGC) | 0
